Experimental data: PMC9695821, “Synthesis and Evaluation of NF-κB Inhibitory Activity of Mollugin Derivatives” (Molecules, 2022)
Marks after values point to notes of the source that are not given here.

Columns and labels:
[1] = tested on: NF-κB transcriptional activity; assay: NF-κB luciferase reporter assay in HeLa cells; format: cell-based; settings: Homo sapiens, NF-κB luciferase reporter, 24 h treatment, hypoxic conditions, mean, n = 3
Description: A NF-κB-Luc plasmid for NF-κB luciferase reporter assay was obtained from Strategene (La Jolla, CA, USA). Transfections were performed as previously described. NF-κB-dependent luciferase activity was measured using the Dual-luciferase reporter assay system. Briefly, HeLa cells (1 × 10^5 cells/well) were seeded in a 96-well plate for 24 h. The cells were then transfected with plasmids for each well and then incubated for a transfection period of 24 h. […] Luciferase activity was determined in MicroLumat plus luminometer (EG&G Berthold, Bad Wildbad, Germany) by injecting 100 µL of assay buffer containing luciferin and measuring light emission for 10 s. Co-transfection with pRL-CMV (Promega, Madison, WI, USA), which expresses Renilla luciferase, was performed to enable normalization of data for transfection efficiency.

[2] = MTT cytotoxicity / cell viability assay; format: cell-based; settings: human; MTT assay, HeLa cells, 24 h treatment, normoxic conditions; mean, n = 3
Description: HeLa cells were inoculated and cultured in 96-well plates. After the cells adhered to the wall, the prepared target compounds with different concentrations were added to all plates for 24 h and then cultured in 5 mg/mL MTT solution for 4 h. The culture solution in the holes was sucked out, and DMSO reagent was added. After the crystallization was fully dissolved, the absorbance at 570 nm was measured by Multiskan GO.

[3] = tested on: xylene-induced ear edema; assay: Xylene-induced ear edema test, initial screening (i.p.); format: in vivo; settings: mice; for inhibition in vivo at 100 mg/kg: Mus musculus, ip, 0.5 h, n = 6, read-out: Inhibition Rate; for Edema Mean ± SD: 100 mg/kg, n = 6
Description: In vivo inhibition test of xylene induced ear edema in mice was performed to evaluate its anti-inflammatory activity.
In the initial screening, mice (male) were randomly divided into experimental group, positive control drug ibuprofen and Mesalazine group, and blank group. All target compounds were dissolved in dimethyl sulfoxide, and corresponding drugs were intraperitoneally injected into experimental group, positive control group and blank group, respectively. Mice were treated with 100 mg/kg, 0.1 mL/20 g body weight, and control mice received only DMSO (0.1 mL/20 g body weight). After 30 min, 20 μL of xy-lene was evenly applied on both sides of the right ear of the mice. After 30 min of xy-lene was applied, the mice were sacrificed by cutting off their necks. Then the left and right ears of the mice were drilled with a hole punch with a diameter of 7 mm, respec-tively, to obtain two round ear pieces. The degree of swelling (right ear mass–left ear mass) was calculated for each sample, and the swelling inhibition rate of each drug was calculated using the following formula. The inhibition rate of swelling degree (%) = (mean ear swelling degree of mice in blank group […] mean ear swelling degree of mice in target compound group)/mean ear swelling degree of mice in blank group × 100%. The data were processed by GraphPadPrism 5 and expressed as mean data ± SEM. One-way ANOVA method was used for statistical analysis of relevant data. A value of p < 0.05 in the chart indicates significant and statistically significant data dif-ference.

[4] = tested on: xylene-induced ear edema; assay: Xylene-induced ear edema test, deep screening (oral); format: in vivo; settings: mice
Description: In the deep screening, mice were divided into target compound group, positive control group (ibuprofen), and blank group (8 male mice in each group). Target com-pound and ibuprofen were dissolved in sodium carboxymethyl cellulose aqueous solu-tion (sodium carboxymethyl cellulose to water, mass ratio 1:1000); the blank group was sodium carboxymethyl cellulose aqueous solution (sodium carboxymethyl cellu-lose to water, mass ratio 1:1000). The anti-inflammatory activities of each compound in the target compound group, positive control group, and blank group were measured at 1, 2, 3, 4, 6, 9, 12 and 24 h after taking the drug. The experimental operation and calculation method are the same as the initial screening part.

Row | IC50 [1] [µM] | melting point [°C] | SMILES | IC50 at 24 h [2] [µM] | inhibition in vivo at 100 mg/kg [3] [%] | Edema Mean ± SD [3] [mg] | other results
1 | 23.1 | 130 to 132 | COC(=O)c1c2c(c3ccccc3c1OCC(=O)NCc1ccc(Cl)cc1)OC(C)(C)C=C2 [Compound 6c, Methyl 6-(2-((4-chlorobenzyl)amino)-2-oxoethoxy)-2,2-dimethyl-2H-benzo [h] chromene-5-carboxylate] | > 100 | 73.2 | 1.7667 ± 0.3037 | 
2 | > 100 | 134 to 136 | COC(=O)c1c2c(c3ccccc3c1OCC(=O)NC1CC1)OC(C)(C)C=C2 [Compound 6f, Methyl 6-(2-(cyclopropylamino)-2-oxoethoxy)-2,2-dimethyl-2H-benzo [h] chromene-5-carboxylate] | > 100 | 57.3 | 2.8167 ± 0.6962 | 
3 | > 100 | 119 to 121 | COC(=O)c1c2c(c3ccccc3c1OCC(=O)Nc1ccc(C)nc1)OC(C)(C)C=C2 [Compound 6i, Methyl 2,2-dimethyl-6-(2-((6-methylpyridin-3-yl)amino)-2-oxoethoxy)-2H-benzo [h] chromene-5-carboxylate] | > 100 | 42.9 | 3.7667 ± 1.1571 | 
4 | > 100 | 127 to 129 | COC(=O)c1c2c(c3ccccc3c1OCC(=O)NC(c1ccccc1)c1ccccc1)OC(C)(C)C=C2 [Compound 6g, Methyl 6-(2-(benzhydrylamino)-2-oxoethoxy)-2,2-Dimethyl-2H-benzo [h] chromene-5-carboxylate] | > 100 | 58.6 | 2.7333 ± 0.4819 | 
5 | 49.3 | 115 to 117 | COC(=O)c1c2c(c3ccccc3c1OCC(=O)NC1CCN(Cc3ccccc3)CC1)OC(C)(C)C=C2 [Compound 6a, Methyl 6-(2-((1-benzylpiperidin-4-yl)amino)-2-oxoethoxy)-2,2-dimethyl-2H-benzo [h] chromene-5-carboxylate] | > 100 | 56.6 | 2.8667 ± 1.2645 | 
6 | > 100 | 116 to 118 | COC(=O)c1c2c(c3ccccc3c1OCC(=O)Nc1ccc3ccccc3n1)OC(C)(C)C=C2 [Compound 6k, Methyl 2,2-dimethyl-6-(2-oxo-2-(quinolin-2-ylamino)ethoxy)-2H-benzo [h] chromene-5-carboxylate] | > 100 | 66.9 | 2.1833 ± 0.6414 | 
7 | 18.6 | 113 to 115 | COC(=O)c1c2c(c3ccccc3c1OCC(=O)Nc1cccc3cccnc13)OC(C)(C)C=C2 [Compound 6j, Methyl 2,2-dimethyl-6-(2-oxo-2-(quinolin-8-ylamino)ethoxy)-2H-benzo [h] chromene-5-carboxylate] | > 100 | 75.2 | 1.6333 ± 0.4384 | 
8 | 4.93 | 121 to 123 | COC(=O)c1c2c(c3ccccc3c1OCC(=O)Nc1cnccn1)OC(C)(C)C=C2 [Compound 6h, Methyl 2,2-dimethyl-6-(2-oxo-2-(pyrazin-2-ylamino)ethoxy)-2H-benzo [h] chromene-5-carboxylate] | > 100 | 72.7 | 1.8000 ± 0.6880 | 
9 | > 100 | 126 to 128 | COC(=O)c1c2c(c3ccccc3c1OCC(=O)Nc1ccncc1)OC(C)(C)C=C2 [Compound 6e, Methyl 2,2-dimethyl-6-(2-oxo-2-(pyridin-4-ylamino)ethoxy)-2H-benzo [h] chromene-5-carboxylate] | > 100 | 65.9 | 2.2500 ± 0.3403 | 
10 | > 100 | 110 to 112 | COC(=O)c1c2c(c3ccccc3c1OCCBr)OC(C)(C)C=C2 [Compound 8a, Methyl 6-(2-bromoethoxy)-2,2-dimethyl-2H-benzo [h] chromene-5-carboxylate] | > 100 | 57.3 | 2.8167 ± 0.9370 | 
11 | > 100 | 135 to 137 | COC(=O)c1c2c(c3ccccc3c1OCCNc1ccccc1)OC(C)(C)C=C2 [Compound 8b, Methyl 2,2-dimethyl-6-(2-(phenylamino)ethoxy)-2H-benzo[h]chromene-5-carboxylate] | > 100 | 76.5 | 1.5500 ± 0.3594 | 

Second part, the molecule before the results:

Row | SMILES | IC50 [1] [µM] | melting point [°C] | IC50 at 24 h [2] [µM] | inhibition in vivo at 100 mg/kg [3] [%] | Edema Mean ± SD [3] [mg] | other results
12 | COC(=O)c1c2c(c3ccccc3c1OCC(=O)Nc1ccc(Cl)cc1)OC(C)(C)C=C2 [Compound 4b, Methyl 6-(2-((4-chlorophenyl)amino)-2-oxoethoxy)-2,2-dimethyl-2H-benzo [h] chromene-5-carboxylate] | > 100 | 122 to 124 | > 100 | 55.8 | 2.9167 ± 0.8029 | 
13 | COC(=O)c1c2c(c3ccccc3c1OCC(=O)Nc1ccc(Br)cc1)OC(C)(C)C=C2 [Compound 4c, Methyl 6-(2-((4-bromophenyl)amino)-2-oxoethoxy)-2,2-dimethyl-2H-Benzo [h] chromene-5-carboxylate] | > 100 | 125 to 127 | > 100 | 49.2 | 3.3500 ± 1.0579 | 
14 | Nc1ccc(O)c(C(=O)O)c1 [mesalazine, reference compound] |  |  |  | 51.3 | 3.2167 ± 1.1067 | 
15 | COC(=O)c1c2c(c3ccccc3c1OCC(=O)Nc1ccccc1C)OC(C)(C)C=C2 [Compound 4g, Methyl 2,2-dimethyl-6-(2-oxo-2-(o-tolylamino)ethoxy)-2H-Benzo [h] chromene-5-carboxylate] | > 100 | 122 to 124 | > 100 | 42.4 | 3.8000 ± 0.5066 | 
16 | COC(=O)c1c2c(c3ccccc3c1OCC(=O)Nc1ccccc1)OC(C)(C)C=C2 [Compound 4a, Methyl 2,2-dimethyl-6-(2-oxo-2-(phenylamino)ethoxy)-2H-benzo [h] chromene-5-carboxyate] | > 100 | 118 to 120 | > 100 | 38.6 | 4.0500 ± 0.6188 | 
17 | CC(C)Cc1ccc(C(C)C(=O)O)cc1 (centres unmarked) [ibuprofen, reference compound] |  |  |  | 49.8 | 3.3167 ± 0.5550 | Inhibition ([4]; 100 mg/kg, time 1 h): 22.98% ***; Inhibition ([4]; 100 mg/kg, time 2 h): 33.33% ***; Inhibition ([4]; 100 mg/kg, time 3 h): 44.95% ***; Inhibition ([4]; 100 mg/kg, time 4 h): 47.47%; Inhibition ([4]; 100 mg/kg, time 4 h, listed as Ibuprfen): 47.47% ***; Inhibition ([4]; 100 mg/kg, time 6 h (Table 5)): 44.44% ***; Inhibition ([4]; 100 mg/kg, time 9 h): 34.60% ***; Inhibition ([4]; 100 mg/kg, time 12 h): 19.95% **; Inhibition ([4]; 100 mg/kg, time 24 h): 14.65% *; Inhibition ([4]; dose series, 25 mg/kg, 6 h): 28.95% *; Inhibition ([4]; dose series, 50 mg/kg, 6 h): 32.68% **; Inhibition ([4]; dose series, 100 mg/kg, 6 h (Table 6)): 43.32% ***
18 | COC(=O)c1c2c(c3ccccc3c1O)OC(C)(C)C=C2 [Mollugin] | > 100 |  | > 100 | 54 | 3.0333 ± 0.9655 | 
